Columns and labels:
[1] = system: Mycobacterium tuberculosis Erdman (autoluminescent); assay: total FIC50 (Loewe) at 50% inhibition, three-drug combination (log2); higher = more antagonistic
Method: (§1)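 DiaMOND equipotent three-drug combination dose responses (10 doses, 1.5- or 2-fold spacing, centred on IC90) against autoluminescent M. tuberculosis Erdman in 8 in vitro models. Read-out is OD600, or luminescence for the intracellular and dormancy models, normalised to untreated wells. Hill-fit Einf, AUC25 and GRinf are potency metrics; FIC50 and FIC90 are total Loewe fractional inhibitory concentrations as log2 (negative = synergy).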

[2] = system: Mycobacterium tuberculosis Erdman (autoluminescent); assay: total FIC90 (Loewe) at 90% inhibition, three-drug combination (log2); higher = more antagonistic
Method: as §1

[3] = system: Mycobacterium tuberculosis Erdman (autoluminescent); assay: Einf, fitted maximum growth inhibition of three-drug combination (fraction); higher = stronger maximal inhibition
Method: as §1

[4] = system: Mycobacterium tuberculosis Erdman (autoluminescent); assay: AUC25, normalised area under dose response up to IC25 (three-drug combination) (fraction (0-1)); higher = more potent at low dose
Method: as §1

[5] = system: Mycobacterium tuberculosis Erdman (autoluminescent); assay: GRinf, maximum normalised growth rate inhibition (three-drug combination) (unitless (-1 to 1)); higher = less effect (negative = killing)
Method: as §1

CC(C)/N=c1\cc2n(-c3ccc(Cl)cc3)c3ccccc3nc-2cc1Nc1ccc(Cl)cc1 [clofazimine] + NNC(=O)c1ccncc1 [isoniazid] + CO[C@H]1/C=C/O[C@@]2(C)Oc3c(C)c(O)c4c(O)c(c(/C=N/N5CCN(C6CCCC6)CC5)c(O)c4c3C2=O)NC(=O)/C(C)=C\C=C\[C@H](C)[C@H](O)[C@@H](C)[C@@H](O)[C@@H](C)[C@H](OC(C)=O)[C@@H]1C [rifapentine]
Settings	AUC25, [4]	Einf, [3]	GRinf, [5]	total FIC50, [1]	total FIC90, [2]
in vitro model: acidic pH 5.7, time point: constant (~7 days, model-specific)	0.0883	0.85	-0.0449	0.415	–
in vitro model: acidic pH 5.7, time point: terminal (~4-5 doublings, model-specific)	0.09	0.989	-0.185	0.259	0.468
in vitro model: intracellular J774, time point: constant = terminal	–	0.954	-0.131	–	0.169

Settings	AUC25, [4]	Einf, [3]	GRinf, [5]	total FIC50, [1]	total FIC90, [2]
in vitro model: butyrate, time point: constant (~7 days, model-specific)	0.0986	0.951	-0.088	0.508	0.999
in vitro model: butyrate, time point: terminal (~4-5 doublings, model-specific)	0.0792	0.98	-0.0855	0.521	0.588
in vitro model: cholesterol 0.05 mM, time point: constant (~7 days, model-specific)	0.118	0.666	0.0951	0.541	–
in vitro model: cholesterol 0.05 mM, time point: terminal (~4-5 doublings, model-specific)	0.0787	0.8	-0.0213	1.11	1.88
in vitro model: cholesterol-high 0.2 mM, time point: constant (~7 days, model-specific)	0.0889	0.959	-0.471	0.542	–
in vitro model: cholesterol-high 0.2 mM, time point: terminal (~4-5 doublings, model-specific)	0.0744	0.999	-0.743	0.993	0.67
in vitro model: dormancy (butyrate + nitrate, low O2), time point: constant (~7 days, model-specific)	0.0787	0.9	0.166	0.0637	-0.201
in vitro model: dormancy (butyrate + nitrate, low O2), time point: terminal (~4-5 doublings, model-specific)	0.0623	0.989	-0.337	0.174	0.32
in vitro model: standard 7H9 glycerol, time point: constant = terminal	0.111	0.942	-0.0519	0.0163	1.07
in vitro model: valerate, time point: constant (~7 days, model-specific)	0.118	0.858	0.0326	0.882	–
in vitro model: valerate, time point: terminal (~4-5 doublings, model-specific)	0.0644	0.907	0.0296	0.418	-0.138

CC(C)/N=c1\cc2n(-c3ccc(Cl)cc3)c3ccccc3nc-2cc1Nc1ccc(Cl)cc1 [clofazimine] + NNC(=O)c1ccncc1 [isoniazid] + CO[C@H]1/C=C/O[C@@]2(C)Oc3c(C)c(O)c4c(O)c(c(/C=N/N5CCN(C)CC5)c(O)c4c3C2=O)NC(=O)/C(C)=C\C=C\[C@H](C)[C@H](O)[C@@H](C)[C@@H](O)[C@@H](C)[C@H](OC(C)=O)[C@@H]1C [rifampicin]
Settings	AUC25, [4]	Einf, [3]	GRinf, [5]	total FIC50, [1]	total FIC90, [2]
in vitro model: acidic pH 5.7, time point: constant (~7 days, model-specific)	0.0827	0.859	-0.00905	0.524	–
in vitro model: acidic pH 5.7, time point: terminal (~4-5 doublings, model-specific)	0.0711	0.977	-0.102	0.542	0.223
in vitro model: intracellular J774, time point: constant = terminal	–	0.983	-0.28	–	0.112

Settings	AUC25, [4]	Einf, [3]	GRinf, [5]	total FIC50, [1]	total FIC90, [2]
in vitro model: butyrate, time point: constant (~7 days, model-specific)	0.107	0.958	-0.146	0.388	0.605
in vitro model: butyrate, time point: terminal (~4-5 doublings, model-specific)	0.082	0.978	-0.104	0.318	0.248
in vitro model: cholesterol 0.05 mM, time point: constant (~7 days, model-specific)	0.102	0.662	0.064	0.74	–
in vitro model: cholesterol 0.05 mM, time point: terminal (~4-5 doublings, model-specific)	0.0787	0.896	0.0504	1.25	-0.29
in vitro model: cholesterol-high 0.2 mM, time point: constant (~7 days, model-specific)	0.0653	0.891	-0.205	0.286	–
in vitro model: cholesterol-high 0.2 mM, time point: terminal (~4-5 doublings, model-specific)	0.0563	0.996	-0.68	0.929	0.197
in vitro model: dormancy (butyrate + nitrate, low O2), time point: constant (~7 days, model-specific)	0.0885	0.876	0.253	-0.0155	-0.596
in vitro model: dormancy (butyrate + nitrate, low O2), time point: terminal (~4-5 doublings, model-specific)	0.0839	0.988	-0.19	-0.403	0.28
in vitro model: standard 7H9 glycerol, time point: constant = terminal	0.112	0.945	-0.018	-0.19	0.0305
in vitro model: valerate, time point: constant (~7 days, model-specific)	0.112	0.866	-0.116	0.565	–
in vitro model: valerate, time point: terminal (~4-5 doublings, model-specific)	0.0604	0.918	0.0831	0.286	0.147

— the supplement of paper PMC8617591
